From ChEMBL document CHEMBL4152360 (Bioorg Med Chem, 2018)
Activity calls are given as the source filed them. The rule behind the calls is not given here.

How the values were obtained:
[1] = biological target: Receptor tyrosine-protein kinase erbB-4 (Homo sapiens) (UniProt Q15303); assay: Inhibition of human HER4 assessed as enzyme residual activity at 100 nM by radiometric filter binding assay relative to control
[2] = biological target: Ribosomal protein S6 kinase alpha-5 (Homo sapiens) (UniProt O75582); assay: Inhibition of human MSK1 assessed as enzyme residual activity at 100 nM by radiometric filter binding assay relative to control
[3] = biological target: Casein kinase II subunit alpha (Homo sapiens, UniProt P68400); assay: Displacement of 5-TAMRA-labeled ARC-1530 from CK2alpha (unknown origin) (1 to 335 residues) after 15 to 60 mins by luminescence assay
Casein kinase II subunit alpha, sequence (P68400 whole entry, looked up, the tested form may be a part): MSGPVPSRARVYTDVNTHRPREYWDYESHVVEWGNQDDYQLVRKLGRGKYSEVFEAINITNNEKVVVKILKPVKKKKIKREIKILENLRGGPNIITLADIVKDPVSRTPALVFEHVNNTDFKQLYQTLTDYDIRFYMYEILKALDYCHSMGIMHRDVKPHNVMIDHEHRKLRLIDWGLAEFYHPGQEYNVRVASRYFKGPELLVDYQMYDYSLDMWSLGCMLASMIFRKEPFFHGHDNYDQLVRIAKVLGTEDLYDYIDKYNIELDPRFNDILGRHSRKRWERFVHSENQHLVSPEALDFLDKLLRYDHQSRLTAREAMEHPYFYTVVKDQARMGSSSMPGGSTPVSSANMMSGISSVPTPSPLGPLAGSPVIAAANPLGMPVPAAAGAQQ

[4] = biological target: Rho-associated protein kinase 2 (Rattus norvegicus) (UniProt Q62868); assay: Inhibition of rat ROCK2 assessed as enzyme residual activity at 100 nM by radiometric filter binding assay relative to control
[5] = biological target: Ribosomal protein S6 kinase beta-1 (Homo sapiens) (UniProt P23443); assay: Inhibition of human S6K1 assessed as enzyme residual activity at 100 nM by radiometric filter binding assay relative to control
Ribosomal protein S6 kinase beta-1 (Homo sapiens), sequence (P23443 whole entry, looked up): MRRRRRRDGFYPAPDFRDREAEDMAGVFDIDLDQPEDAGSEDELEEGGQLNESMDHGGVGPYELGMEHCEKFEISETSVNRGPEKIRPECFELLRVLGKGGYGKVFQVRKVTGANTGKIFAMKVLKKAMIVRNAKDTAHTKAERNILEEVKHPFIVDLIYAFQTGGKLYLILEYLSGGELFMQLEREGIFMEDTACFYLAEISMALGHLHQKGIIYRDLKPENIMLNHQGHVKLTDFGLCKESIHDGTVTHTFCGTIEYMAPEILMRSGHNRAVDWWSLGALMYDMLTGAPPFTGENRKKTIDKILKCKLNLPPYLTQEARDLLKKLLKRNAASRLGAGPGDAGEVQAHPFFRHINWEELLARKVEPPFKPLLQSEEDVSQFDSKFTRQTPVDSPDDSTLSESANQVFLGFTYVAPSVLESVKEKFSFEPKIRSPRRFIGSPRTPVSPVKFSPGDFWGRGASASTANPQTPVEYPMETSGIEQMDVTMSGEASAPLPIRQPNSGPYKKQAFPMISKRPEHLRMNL

[6] = biological target: Tyrosine-protein kinase JAK3 (Homo sapiens) (UniProt P52333); assay: Inhibition of human JAK3 assessed as enzyme residual activity at 100 nM by radiometric filter binding assay relative to control
[7] = biological target: Ephrin type-A receptor 2 (Homo sapiens) (UniProt P29317); assay: Inhibition of human EPHA2 assessed as enzyme residual activity at 100 nM by radiometric filter binding assay relative to control
[8] = biological target: Interleukin-1 receptor-associated kinase 4 (Homo sapiens) (UniProt Q9NWZ3); assay: Inhibition of human IRAK4 assessed as enzyme residual activity at 100 nM by radiometric filter binding assay relative to control
[9] = biological target: Serine/threonine-protein kinase pim-1 (Homo sapiens) (UniProt P11309); assay: Inhibition of human PIM1 assessed as enzyme residual activity at 100 nM by radiometric filter binding assay relative to control
Serine/threonine-protein kinase pim-1 (Homo sapiens), sequence (P11309 whole entry, looked up): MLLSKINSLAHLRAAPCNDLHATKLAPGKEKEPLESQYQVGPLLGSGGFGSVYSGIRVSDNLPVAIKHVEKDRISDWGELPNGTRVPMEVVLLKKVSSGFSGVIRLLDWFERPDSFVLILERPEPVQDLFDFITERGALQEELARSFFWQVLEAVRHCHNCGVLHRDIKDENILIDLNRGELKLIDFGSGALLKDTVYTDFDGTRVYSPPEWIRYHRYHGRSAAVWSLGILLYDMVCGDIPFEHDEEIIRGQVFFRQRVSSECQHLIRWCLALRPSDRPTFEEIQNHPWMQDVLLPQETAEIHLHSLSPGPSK

[10] = biological target: Calcium/calmodulin-dependent protein kinase kinase 2 (Homo sapiens) (UniProt Q96RR4); assay: Inhibition of human CaMKKbeta assessed as enzyme residual activity at 100 nM by radiometric filter binding assay relative to control
Calcium/calmodulin-dependent protein kinase kinase 2 (Homo sapiens), sequence (Q96RR4 2-588 limits assumed): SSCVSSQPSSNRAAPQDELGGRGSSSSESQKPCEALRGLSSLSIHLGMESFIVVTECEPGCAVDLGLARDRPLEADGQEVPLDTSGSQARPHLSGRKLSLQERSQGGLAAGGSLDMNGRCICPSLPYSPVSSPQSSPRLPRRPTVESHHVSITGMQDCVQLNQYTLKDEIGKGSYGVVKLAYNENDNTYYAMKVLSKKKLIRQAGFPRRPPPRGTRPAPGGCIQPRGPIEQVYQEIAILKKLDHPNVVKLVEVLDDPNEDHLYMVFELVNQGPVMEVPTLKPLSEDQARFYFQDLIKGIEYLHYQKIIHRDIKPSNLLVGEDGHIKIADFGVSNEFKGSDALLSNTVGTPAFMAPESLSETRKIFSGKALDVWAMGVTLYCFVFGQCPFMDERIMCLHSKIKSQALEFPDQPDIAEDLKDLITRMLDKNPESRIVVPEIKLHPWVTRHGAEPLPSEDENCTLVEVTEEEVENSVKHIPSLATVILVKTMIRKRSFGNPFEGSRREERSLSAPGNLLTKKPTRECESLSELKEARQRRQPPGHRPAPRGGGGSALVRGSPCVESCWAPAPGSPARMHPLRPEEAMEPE

[11] = biological target: Receptor-interacting serine/threonine-protein kinase 2 (Homo sapiens) (UniProt O43353); assay: Inhibition of human RIPK2 assessed as enzyme residual activity at 100 nM by radiometric filter binding assay relative to control
Receptor-interacting serine/threonine-protein kinase 2 (Homo sapiens), sequence (O43353 whole entry): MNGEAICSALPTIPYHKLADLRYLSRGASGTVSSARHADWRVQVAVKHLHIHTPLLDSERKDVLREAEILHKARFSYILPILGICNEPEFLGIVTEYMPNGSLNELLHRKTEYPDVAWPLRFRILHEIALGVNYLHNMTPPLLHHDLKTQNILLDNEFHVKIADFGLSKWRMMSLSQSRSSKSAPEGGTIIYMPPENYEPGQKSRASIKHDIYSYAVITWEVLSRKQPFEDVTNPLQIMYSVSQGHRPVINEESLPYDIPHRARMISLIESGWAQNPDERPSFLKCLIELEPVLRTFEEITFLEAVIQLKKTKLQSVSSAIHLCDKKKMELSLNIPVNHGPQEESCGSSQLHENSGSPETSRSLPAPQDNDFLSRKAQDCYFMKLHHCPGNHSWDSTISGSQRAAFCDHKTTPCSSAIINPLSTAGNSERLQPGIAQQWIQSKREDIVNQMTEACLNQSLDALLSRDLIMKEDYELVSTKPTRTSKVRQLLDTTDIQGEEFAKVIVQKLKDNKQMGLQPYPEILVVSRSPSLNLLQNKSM

[12] = biological target: Mitogen-activated protein kinase 14 (Homo sapiens) (UniProt Q16539); assay: Inhibition of human p38alpha MAPK assessed as enzyme residual activity at 100 nM by radiometric filter binding assay relative to control
[13] = biological target: Myosin light chain kinase, smooth muscle (Homo sapiens) (UniProt Q15746); assay: Inhibition of human SmMLCK assessed as enzyme residual activity at 100 nM by radiometric filter binding assay relative to control
[14] = biological target: Insulin-like growth factor 1 receptor (Homo sapiens) (UniProt P08069); assay: Inhibition of human IGF1R assessed as enzyme residual activity at 100 nM by radiometric filter binding assay relative to control
[15] = biological target: Glycogen synthase kinase-3 beta (Homo sapiens) (UniProt P49841); assay: Inhibition of human GSK3beta assessed as enzyme residual activity at 100 nM by radiometric filter binding assay relative to control
[16] = biological target: Proto-oncogene tyrosine-protein kinase LCK (Mus musculus) (UniProt P06240); assay: Inhibition of mouse Lck assessed as enzyme residual activity at 100 nM by radiometric filter binding assay relative to control
Proto-oncogene tyrosine-protein kinase LCK (Mus musculus), sequence (P06240 2-509 limits assumed): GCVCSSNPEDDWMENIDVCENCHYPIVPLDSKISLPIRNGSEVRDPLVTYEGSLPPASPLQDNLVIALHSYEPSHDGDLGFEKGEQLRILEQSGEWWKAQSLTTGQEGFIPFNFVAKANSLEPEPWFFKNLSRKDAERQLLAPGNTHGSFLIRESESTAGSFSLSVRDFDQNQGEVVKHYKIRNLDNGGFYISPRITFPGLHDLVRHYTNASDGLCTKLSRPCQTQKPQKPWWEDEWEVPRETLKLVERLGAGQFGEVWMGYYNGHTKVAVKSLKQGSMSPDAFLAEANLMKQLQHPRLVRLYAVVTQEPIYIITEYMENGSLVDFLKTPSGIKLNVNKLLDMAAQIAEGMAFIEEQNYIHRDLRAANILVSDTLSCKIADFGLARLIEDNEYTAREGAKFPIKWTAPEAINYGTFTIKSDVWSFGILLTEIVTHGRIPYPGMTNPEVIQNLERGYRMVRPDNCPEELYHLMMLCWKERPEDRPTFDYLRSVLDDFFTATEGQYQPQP

[17] = biological target: Serine/threonine-protein kinase TBK1 (Homo sapiens) (UniProt Q9UHD2); assay: Inhibition of human TBK1 assessed as enzyme residual activity at 100 nM by radiometric filter binding assay relative to control
Serine/threonine-protein kinase TBK1 (Homo sapiens), sequence (Q9UHD2 whole entry): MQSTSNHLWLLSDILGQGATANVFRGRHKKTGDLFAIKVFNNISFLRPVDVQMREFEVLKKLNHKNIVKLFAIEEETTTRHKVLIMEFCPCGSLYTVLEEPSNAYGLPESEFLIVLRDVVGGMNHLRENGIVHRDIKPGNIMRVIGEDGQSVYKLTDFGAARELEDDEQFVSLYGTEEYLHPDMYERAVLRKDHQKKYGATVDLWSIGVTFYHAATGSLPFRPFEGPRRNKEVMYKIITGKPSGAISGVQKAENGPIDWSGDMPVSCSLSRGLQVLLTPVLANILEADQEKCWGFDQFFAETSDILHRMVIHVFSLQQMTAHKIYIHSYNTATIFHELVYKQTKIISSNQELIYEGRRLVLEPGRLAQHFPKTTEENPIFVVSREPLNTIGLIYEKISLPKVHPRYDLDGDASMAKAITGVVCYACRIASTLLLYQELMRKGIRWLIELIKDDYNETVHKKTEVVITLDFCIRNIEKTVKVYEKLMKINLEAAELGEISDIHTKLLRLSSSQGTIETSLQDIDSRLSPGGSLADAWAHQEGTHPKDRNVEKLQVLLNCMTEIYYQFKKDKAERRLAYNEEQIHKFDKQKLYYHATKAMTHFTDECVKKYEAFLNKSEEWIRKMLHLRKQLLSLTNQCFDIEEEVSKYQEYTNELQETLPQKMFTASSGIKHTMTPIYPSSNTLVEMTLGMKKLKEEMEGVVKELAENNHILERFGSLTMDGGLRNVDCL

[18] = biological target: Serine/threonine-protein kinase PAK 4 (Homo sapiens) (UniProt O96013); assay: Inhibition of human PAK4 assessed as enzyme residual activity at 100 nM by radiometric filter binding assay relative to control
[19] = biological target: 3-phosphoinositide-dependent protein kinase 1 (Homo sapiens) (UniProt O15530); assay: Inhibition of human PDK1 assessed as enzyme residual activity at 100 nM by radiometric filter binding assay relative to control
[20] = biological target: AMP-activated protein kinase, AMPK (Homo sapiens) (UniProt P54646+O43741+P54619+Q9UGJ0+Q9Y478+Q13131+Q9UGI9); assay: Inhibition of human AMPK assessed as enzyme residual activity at 100 nM by radiometric filter binding assay relative to control; type: protein-complex assay

Receptor tyrosine-protein kinase erbB-4 (Homo sapiens), sequence (Q15303 whole entry): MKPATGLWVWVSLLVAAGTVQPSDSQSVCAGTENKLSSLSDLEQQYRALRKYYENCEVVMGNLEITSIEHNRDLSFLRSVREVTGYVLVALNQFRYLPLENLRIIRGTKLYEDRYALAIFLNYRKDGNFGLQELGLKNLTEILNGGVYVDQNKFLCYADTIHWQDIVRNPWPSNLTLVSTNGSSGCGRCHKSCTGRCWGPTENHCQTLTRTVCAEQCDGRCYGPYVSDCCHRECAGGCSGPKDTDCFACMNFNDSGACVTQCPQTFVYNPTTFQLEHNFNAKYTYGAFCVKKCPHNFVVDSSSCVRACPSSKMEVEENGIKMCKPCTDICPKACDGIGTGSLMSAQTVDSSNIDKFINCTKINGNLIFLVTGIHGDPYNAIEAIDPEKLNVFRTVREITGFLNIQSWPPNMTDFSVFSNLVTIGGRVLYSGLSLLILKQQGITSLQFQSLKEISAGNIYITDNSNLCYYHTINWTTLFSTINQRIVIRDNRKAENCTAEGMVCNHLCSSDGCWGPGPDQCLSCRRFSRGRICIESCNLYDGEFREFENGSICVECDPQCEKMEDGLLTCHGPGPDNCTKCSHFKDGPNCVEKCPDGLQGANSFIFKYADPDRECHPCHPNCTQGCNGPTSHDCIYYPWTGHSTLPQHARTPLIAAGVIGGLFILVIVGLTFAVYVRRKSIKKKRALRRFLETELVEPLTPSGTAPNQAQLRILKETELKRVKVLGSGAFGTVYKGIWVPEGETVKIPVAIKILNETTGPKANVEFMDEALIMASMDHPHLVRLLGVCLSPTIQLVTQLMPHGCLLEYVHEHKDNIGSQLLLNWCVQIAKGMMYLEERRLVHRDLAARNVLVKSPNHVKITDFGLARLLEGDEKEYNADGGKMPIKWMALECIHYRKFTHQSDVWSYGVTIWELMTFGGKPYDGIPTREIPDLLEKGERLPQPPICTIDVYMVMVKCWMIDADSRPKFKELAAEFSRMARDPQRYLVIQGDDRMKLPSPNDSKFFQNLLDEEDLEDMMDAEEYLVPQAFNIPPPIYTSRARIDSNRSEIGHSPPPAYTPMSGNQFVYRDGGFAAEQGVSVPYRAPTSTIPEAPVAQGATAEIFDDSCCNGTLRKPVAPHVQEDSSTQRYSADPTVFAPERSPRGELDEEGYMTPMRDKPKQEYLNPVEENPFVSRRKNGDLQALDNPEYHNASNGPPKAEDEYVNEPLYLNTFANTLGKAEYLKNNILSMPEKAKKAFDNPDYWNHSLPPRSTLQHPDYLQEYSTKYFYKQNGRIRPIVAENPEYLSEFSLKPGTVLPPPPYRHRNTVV

Activity [1]: 113%
Activity [2]: 115%
Activity [3]: Active
Activity [4]: 96.5%
Activity [5]: 104%
Activity [6]: 85%
Activity [7]: 107%
Activity [8]: 102%
Activity [9]: 91%
Activity [10]: 120%
Activity [11]: 85%
Activity [12]: 102%
Activity [13]: 68%
Activity [14]: 143%
Activity [15]: 19%
Activity [16]: 101%
Activity [17]: 78%
Activity [18]: 101%
Activity [19]: 111%
Activity [20]: 69%
Structure (SMILES): NCCCC[C@@H](NC(=O)[C@@H](CC(=O)O)NC(=O)[C@@H](CC(=O)O)NC(=O)[C@@H](CC(=O)O)NC(=O)[C@@H](CC(=O)O)NC(=O)[C@@H](CC(=O)O)NC(=O)[C@@H](CC(=O)O)NC(=O)CCCCCNC(=O)CCC(=O)Nc1ncc(-c2ccc(C(=O)O)cc2)s1)C(=O)O
